Laboratory results reported in patent publication US20150265642A1, “NAD BIOSYNTHESIS AND PRECURSORS IN THE PREVENTION AND TREATMENT OF INFLAMMATION” (PRESIDENT AND FELLOWS OF HARVARD COLLEGE, priority 2013, published 2015).
Entries after “also recorded” stand apart in the source; their conditions may differ.

What was measured:
NAD+ levels = assay: NAD+ measurement in skeletal muscle of NMN-treated mice; format: in vivo, C57BL/6J mice; settings: for levels of cellular NAD+: young and old
Procedure: (§1) C57BL/6J mice of 3, 6, 22, 24, or 30 months of age were obtained from the National Institutes of Aging mouse aging colony. Mice were acclimated for at least one-week prior to sacrifice. 3, and 24-month-old mice were given interperitoneal (IP) injections of 500 mg NMN/kg body weight per day or the equivalent volume of PBS for 7 consecutive days at 5:00 pm and 7:00 am on day 8 and sacrificed 4 hr after last injection. All animal studies followed the guidelines of and were approved by the Harvard Institutional Animal Care and Use Committee
NAD^+ from C2C12 cells and skeletal muscle was quantified with a commercially available kit (BioVision) according to the manufacturer's instructions and as described before (Gomes et al., Biochim. Biophys. Acta. 1822:185-195 (2012)).
(§2) C57BL/6J mice of 6, 22, or 30 months of age were obtained from the National Institutes of Aging mouse aging colony. Additionally 22 months old caloric restricted mice were also obtained from the National Institutes of Aging mouse aging colony. EGLN1 KO, SIRT1 KO and SIRT1 OE mice were generated as previously described (Minamishima et al., 2008; Price et al., 2012). Mice were acclimated for at least one-week prior to sacrifice. 3, 6, 22 and 24-month-old mice were given interperitoneal (IP) injections of 500 mg NMN/kg body weight per day or the equivalent volume of PBS for 7 consecutive days at 5:00 pm and 7:00 am on day 8 and sacrificed 4 hr after last injection.
NAD^+ from skeletal muscle was quantified with a commercially available kit (BioVision) according to the manufacturer's instructions and as described before (Gomes et al., 2012).
C57BL/6J mice of 3, 6, 22, or 24 months of age were obtained from the National Institutes of Aging mouse aging colony. Mice were acclimated for at least one-week prior to sacrifice. […]
NAD^+ from C2C12 cells and skeletal muscle was quantified with a commercially available kit (BioVision) according to the manufacturer's instructions and as described before (Gomes et al., 2012).

[1] = test system: HIF-1α target genes (PGK-1, Glut1, PKD1, VEGFa); assay: qPCR of HIF-1α target genes in gastrocnemius of NMN-treated mice; format: in vivo; settings: 24-month-old mice; NMN 500 mg/kg IP, one week
Procedure: as §1
RNA from skeletal muscle tissue and C2C12 cells were extracted with RNeasy mini kit (Qiagen) according to the instructions and quantified using the NanoDrop 1000 spectrophotometer (Thermo Scientific). cDNA was synthesized with the iSCRIP cDNA synthesis kit (BioRad) using 600 ng of RNA. Quantitative RT-PCR reactions were performed using 1 μM of primers and LightCycler® 480 SYBR Green Master (Roche) on an LightCycler® 480 detection system (Roche). Calculations were performed by a comparative method (2-ΔCT) using 18S as an internal control. For mtDNA analysis, total DNA was extracted with DNeasy blood and tissue kit (Qiagen). mtDNA was amplified using primers specific for the mitochondrial cytochrome c oxidase subunit 2 (COX2) gene and normalized to genomic DNA by amplification of the ribosomal protein s18 (rps18) nuclear gene. […]

VHL = assay: Immunoblot for VHL in gastrocnemius of NMN-treated mice; format: in vivo; settings: 22-month-old mice, NMN one week
Source text: as §2
(§3) Protein extracts from tissue or C2C12 cells were obtained by lysis in ice-cold lysis buffer (150 mM NaCl, 10 mM Tris HCl (pH 7.4), 1 mM EDTA, 1 mM EGTA, 1% Triton X-100, 0.5% NP-40) supplemented with a cocktail of protease and phosphatase inhibitors (Roche). Protein content was determined by the Bradford protein assay (Biorad), and 50 μg proteins were run on SDS-PAGE under reducing conditions. The separated proteins were then electrophoretically transferred to a polyvinylidene difluoride membrane (Perkin-Elmer). […] The immunostaining was detected using horseradish peroxidase-conjugated anti-rabbit or anti-mouse immunoglobulin for 1 h at room temperature.

[2] = test system: inflammation related markers in aortas; assay: qPCR of inflammation related markers in aortas; format: in vivo, C57BL/6J mice; settings: 22-months-old mice, NMN IP 500 mg/kg/day, 7 days
Procedure: as §1, with “6, 22, or 24” for “6, 22, 24, or 30”, “22, or 24 months of” for “24, or 30 months of”, “sacrifice. 3, 6, 22 and 24-month-old” for “sacrifice. 3, and 24-month-old”
RNA from skeletal muscle and aorta were extracted with RNeasy mini kit (Qiagen) according to the instructions and quantified using the NanoDrop 1000 spectrophotometer (Thermo Scientific). cDNA was synthesized with the iSCRIP cDNA synthesis kit (BioRad) using 600 ng of RNA. Quantitative RT-PCR reactions were performed using 1 μM of primers and LightCycler® 480 SYBR Green Master (Roche) on an LightCycler® 480 detection system (Roche). Calculations were performed by a comparative method (2-ΔCT) using 18S as an internal control. Primers were designed using the IDT software (IDT).

AKT and IRS-1 = assay: Insulin signaling (phosphorylation of AKT and IRS-1) in skeletal muscle; format: in vivo; settings: soleus of old mice treated with NMN
Source text: as §2, §3

HIF-1α = assay: Immunoblot for HIF-1α in gastrocnemius of NMN-treated mice; format: in vivo
Procedure: as §1
C57BL/6J mice of 6, 22, or 30 months of age were obtained from the National Institutes of Aging mouse aging colony. Additionally 22 months old caloric restricted mice were also obtained from the National Institutes of Aging mouse aging colony. […]
as §3, with “conditions.” for “conditions. The separated proteins were then electrophoretically transferred to a polyvinylidene difluoride membrane (Perkin-Elmer).”, “temperature. […]” for “temperature.”

[3] = Lactate levels in skeletal muscle of NMN-treated mice; format: in vivo; settings: 22-month-old mice; NMN one week
Source text: as §2

Question: What does the source list for `NC(=O)c1ccc[n+]([C@@H]2O[C@H](COP(=O)([O-])O)[C@@H](O)[C@H]2O)c1` [NMN, nicotinamide mononucleotide]?
Answer: levels of cellular NAD+ (NAD+ levels; 3- and 24-month-old C57BL/6J mice, NMN 500 mg/kg IP, one week, treated vs untreated): approximately 2 fold; levels of cellular NAD+ (NAD+ levels; 6- and 22-month-old C57BL/6J mice, NMN one week): 2 fold; NAD+ levels in the skeletal muscle of old mice (NAD+ levels; gastrocnemius, 3- and 24-month-old C57BL6J mice, NMN IP 500 mg/kg/day, 7 days, colorimetric NAD+ assay): increases NAD+ levels; expression of HIF-1α target genes [1]: suppressed the expression of HIF-1α target genes; VHL protein (VHL): reversed the age-induced decline in VHL; inflammation related markers (IL-6, TNFa, Nlrp3, IL-1b, CD68 and IL-10) in aortas ([2]; FIG. 26): reduces inflammation in aortas from old mice; inflammatory markers (VEGF and IL-18) in aortas ([2]; FIG. 27): reduces inflammation in aortas from old mice; insulin signaling (phosphorylation of AKT and IRS-1) (AKT and IRS-1): restore insulin signaling; HIF-1α protein (HIF-1α; 22-month-old mice, gastrocnemius, NMN IP 500 mg/kg/day, 7 days, 500 mg/kg/day): reversed the age-induced decline in VHL and consequent accumulation of HIF-1α; also recorded: destabilizes HIF-1alpha in the skeletal muscle of old animals; HIF-1α in muscle (HIF-1α; 24-month-old mice, NMN 500 mg/kg IP, one week): reversed the age-induced increase in HIF-1α in muscle; lactate levels in the skeletal muscle [3]: suppressed the increase in lactate levels
